Laboratory results from paper PMC7583046, “The Paralogue of the Intrinsically Disordered Nuclear Protein 1 Has a Nuclear Localization Sequence that Binds to Human Importin α3” (International Journal of Molecular Sciences, 2020).
Entries after “also recorded” stand apart in the source; their conditions may differ.

Key:
[1] = Aggregation / self-association tendency; type: physicochemical; conditions: isolated peptide, refers to Section 2.2.1
[2] = DOSY translational diffusion NMR; type: physicochemical; conditions: 120 μM peptide, 283 K
Experimental: The peptide concentration in DOSY experiment was 120 μM, and 128 scans were acquired, where the gradient strength was varied linearly. Translational self-diffusion measurements were performed with the pulsed-gradient spin-echo sequence in the presence of 100% D2O. Experimental details have been described elsewhere. The gradient strength was varied in sixteen linear steps between 2 and 95% of the total power of the gradient coil. The gradient strength was calibrated using the value of the translational diffusion coefficient, D, for the residual proton water signal in a sample containing 100% D2O in a 5 mm tube [53]. The length of the gradient was 2.25 ms, the time between the two pulse gradients in the pulse sequence was 200 ms, and the recovery delay between the bipolar gradients was 100 μs. The methyl groups with signals between 1.0 and 0.80 ppm were used for peak integration (Section 2.2.1). Fitting of the exponential curves, obtained from experimental data as previously described, was carried out with KaleidaGraph version 3.5 (Synergy Software, Reading, PA, USA). A final concentration of 1% of dioxane, which was assumed to have a hydrodynamic radius Rh = 2.12 Å [53], was added to the peptide solution.

[3] = test system: Impα3; conditions: 50 mM phosphate pH 7.0, 298 K; NLS-NUPR1L 10 μM, importin 4 μM
Experimental: (§1) Fluorescence spectra were collected on a Cary Varian spectrofluorometer (Agilent, Santa Clara, CA, USA), interfaced with a Peltier unit. All experiments were carried out at 298 K. Following the standard protocols used in our laboratories, the samples were prepared the day before and left overnight at 278 K; before experiments, samples were left for 1 h at 298 K. A 1 cm pathlength quartz cell (Hellma, Kruibeke, Belgium) was used. The concentration of NLS-NUPR1L was 10 μM and those of both importins were 4 μM. Samples containing the isolated peptide, the isolated importin species, and a mixture of both (at those indicated concentrations) were prepared. Experiments were acquired in 50 mM phosphate buffer (pH 7.0). For the experiments with intact NUPR1L, a concentration of 15 μM (in protomer units) was used and that of each importin was 5 μM.
(§2) Protein samples were excited either at 280 or 295 nm. The other experimental parameters and the buffers used have been described elsewhere. […]
(§3) Far-UV CD spectra were collected on a Jasco J810 spectropolarimeter (Jasco, Tokyo, Japan) with a thermostated cell holder, and interfaced with a Peltier unit at 298 K. The instrument was periodically calibrated with (+)-10-camphorsulphonic acid. […] The concentration of each polypeptide (importin species and either NLS-NUPR1L or intact NUPR1L) was the same as that used in the fluorescence experiments (Section 4.4). […]

[4] = test system: ∆Impα3; conditions: 50 mM phosphate pH 7.0, 298 K; NUPR1L 15 μM with importin 5 μM, or NLS-NUPR1L 10 μM with importin 4 μM
Experimental: as §1, §2, §3

[5] = test system: Impα3; conditions: 35 μM peptide, pH 7.2, 50 mM deuterated Tris, 1-1 echo sequence
Experimental: The NMR experiments were acquired at 283 K on a Bruker Avance spectrometer (Bruker GmbH, Karlsruhe, Germany), equipped with a triple resonance probe and z-pulse field gradients. All experiments with NLS-NUPR1L were carried out at pH 7.2, 50 mM deuterated Tris buffer (not corrected for isotope effects). The spectra were calibrated with TSP ((trimethylsilyl)-2,2,3,3-tetradeuteropropionic acid), by considering pH-dependent changes of its chemical-shifts; probe temperature was calibrated with methanol.
Measurements of the T2 (transverse relaxation time) provide a convenient method to determine the molecular mass of a macromolecule, as the correlation time, τc, is approximately equal to 1/(5 × T2). We measured the T2 of one of the indole protons (Section 2.2.1) for NLS-NUPR1L (at 35 μM concentration) in isolation and in the presence of Impα3 (at a final concentration of 7 μM) with the 1-1 echo sequence. The calculation of the T2 was carried out as described.

[6] = Conformation of isolated peptide by fluorescence, far-UV CD and NMR; type: physicochemical
Experimental: Appropriate blank corrections were made in all spectra.
All spectra were corrected by subtracting the corresponding baseline.
An amount of 128 scans was acquired with 16 K acquisition points for the homonuclear 1D-^1H-NMR spectrum, and using a peptide concentration of 1.0–1.2 mM. Water signal was suppressed using the WATERGATE sequence. The spectrum was processed with Bruker TopSpin 2.1 (Bruker GmbH, Karlsruhe, Germany), after zero-filling and apodization with an exponential window.
Two-dimensional spectra were acquired in each dimension in the phase-sensitive mode using the time-proportional-phase incrementation technique (TPPI) and a spectral width of 7801.69 Hz; the final concentration of the NLS-NUPR1L was the same as that used in the 1D experiments. Standard TOCSY (Total correlation spectroscopy) (with a mixing time of 80 ms) and NOESY experiments (with a mixing time of 250 ms) were performed by acquiring a data matrix size of 4096 × 512 points. The DIPSI (decoupling in the presence of scalar interactions) spin-lock sequence was used in the TOCSY experiments with 1 s of relaxation time. Typically, 96 scans were acquired per increment in the first dimension, and the residual water signal was removed using the WATERGATE sequence. NOESY spectra were collected typically with 96 scans per increment in the first dimension, with the residual water signal removed again by the WATERGATE sequence, and with 1 s of relaxation time. Data were zero-filled, resolution-enhanced with a square sine-bell window function optimized in each spectrum, baseline-corrected, and processed with the Bruker TopSpin 2.1 software (Bruker GmbH, Karlsruhe, Germany). The ^1H resonances were assigned by standard sequential assignment processes. The chemical shift values of Hα protons in random-coil regions were obtained from tabulated data, corrected by neighbouring residue effects.

Question: For “Ac-RTRREQALRTNWPAPGGHERKVAQ-NH2 [NLS-NUPR1L]”, which tendency to aggregate [1] is on record?
Answer: Its tendency to aggregate is “did not have any tendency to aggregate”.

Question: And the “translational diffusion coefficient D” value ([2]; 100% D2O, pH 7.2, 50 mM Tris)?
Answer: Its value is 1.74 ± 0.05 × 10^−6 cm^2 s^−1.

Question: What about the association state [2] of the same substance?
Answer: Its association state is “monomeric”.

Question: And the “hydrodynamic radius Rh” value ([2]; estimated by comparison with dioxane (1%))?
Answer: The value was 12 ± 2 Å.

Question: And the “spectral changes upon binding to Impα3 (fluorescence and CD)” value [3]?
Answer: Its value is “there were changes in the spectra upon addition of NLS-NUPR1L to each of the importin species”.

Question: And the “spectral changes upon binding to ∆Impα3 (fluorescence and/or far-UV CD)” value [4]?
Answer: Its value is “there were changes in the spectra upon addition of NLS-NUPR1L to each of the importin species”.

Question: And the “T2 of most up-field indole signal, in the presence of Impα3” value ([5]; 7 μM Impα3, 283 K)?
Answer: The value was 36.7 ms.

Question: And the “T2 of most up-field indole signal, isolated peptide” value ([5]; 283 K)?
Answer: The value was 62.2 ms.

Question: What about the “far-UV CD minimum” value ([6]; 298 K, 50 mM phosphate pH 7.0) of the same substance?
Answer: The value was ~ 203 nm.

Question: What about the fluorescence emission maximum ([6]; excitation 280 nm, 50 mM phosphate pH 7.0, 298 K) of the same substance?
Answer: Its fluorescence emission maximum is 353 nm.

Question: And the “conformation in aqueous solution” value ([6]; fluorescence, far-UV CD and NMR)?
Answer: The value was “random-coil conformation; also recorded: disordered in aqueous solution; also recorded: did not have any propensity to acquire helix- or turn-like conformations”.
